Molecules are shown by their SMILES.

The first assay deals with T1, active p38 alpha enzyme (Upstate Biotechnology) (Homo sapiens, UniProt Q16539).
T1 construct: purchased Upstate Biotechnology
T1 sequence (Q16539 whole entry): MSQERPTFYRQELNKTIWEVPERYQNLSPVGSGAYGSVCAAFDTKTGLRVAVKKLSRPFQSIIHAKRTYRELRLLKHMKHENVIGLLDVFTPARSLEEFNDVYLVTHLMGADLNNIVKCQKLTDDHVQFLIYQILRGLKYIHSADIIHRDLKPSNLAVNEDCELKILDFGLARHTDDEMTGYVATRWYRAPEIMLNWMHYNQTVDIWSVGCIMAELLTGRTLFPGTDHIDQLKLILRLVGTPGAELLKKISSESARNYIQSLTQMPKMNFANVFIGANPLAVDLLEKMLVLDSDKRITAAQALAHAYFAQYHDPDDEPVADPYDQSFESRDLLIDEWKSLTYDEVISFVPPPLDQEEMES
Description: p38α biochemical assay (ATP turnover, luminescent detection, Cambrex PKlight). Conditions: p38α biochemical assay, Table 1 Biological Activity. The procedure, abridged: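 Luminescent PKlight readout of total ATP consumption follows a 2 h, 30C kinase reaction. Enzyme and MapkapK2 substrate run with 1.4 uM ATP (final) in buffer containing Mg2+, Ca2+, chelators, glycerol, reducing agent and BSA; test compounds added by pintool from DMSO.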
As usually defined, the IC50 is the midpoint of a concentration-inhibition curve. Low values mean greater potency in that assay, high ones weaker potency in that assay. `CC(C)NC(=O)c1csc(-c2oc(CNC(=O)/C=C/c3ccc4c(c3)OCO4)nc2-c2ccc(F)cc2)n1` [Example 255]: the IC50 was over 1000 nM. As to `CC(C)NC(=O)c1csc(-c2oc(CNC(=O)C(C(C)C)N(C)C(=O)OC(C)(C)C)nc2-c2ccc(F)cc2)n1` (centres unmarked) [Example 318], the IC50 is over 1000 nM. For the molecule `CC(C)NC(=O)c1csc(-c2oc(CN3CCN(C(=O)c4ccc([N+](=O)[O-])cc4Cl)CC3)nc2-c2ccc(F)cc2)n1` [Example 509], the IC50 was over 1000 nM. Same read-out and setting: next, `COc1ccc(OC)c(C(=O)NCc2onc(-c3ccc(F)cc3)c2-c2nc(C(=O)NC(C)C)cs2)c1` [Example 699]: over 1000 nM. For the molecule `CC(C)NC(=O)c1csc(-c2oc(CN(C)C)nc2-c2ccc(F)cc2)n1` [Example 42, 2-|2-Dimethylaminomethyl-4-(4-fluoro-phenyl)-oxazol-5-yl|-thiazole-4-carboxylic acid isopropylamide], the IC50 was at most 1000 nM. The molecule `CC(C)NC(=O)c1csc(-c2oc(CNC(=O)c3ccccn3)nc2-c2ccc(F)cc2)n1` [Example 114] came in with an IC50 of over 1000 nM.

Molecule `CC(C)NC(=O)c1csc(-c2oc(CN3CCN(C(=O)c4ccccc4C(F)(F)F)CC3)nc2-c2ccc(F)cc2)n1` [Example 486] had an IC50 of over 1000 nM. `CC(C)NC(=O)c1csc(-c2oc(CN3CCN(C(=O)c4csc5ccccc45)CC3)nc2-c2ccc(F)cc2)n1` [Example 443] had a half-maximal inhibitory concentration (IC50) of over 1000 nM. Still for that read-out and setting: as for `CC(C)NC(=O)c1csc(-c2c(-c3ccc(F)cc3)noc2CNC(=O)c2ccc(Cl)cc2O)n1` [Example 670], the figure is over 1000 nM; as for `CC(C)NC(=O)c1csc(-c2oc(CNC(=O)c3ccc(N(C)C=O)cc3)nc2-c2ccc(F)cc2)n1` [Example 210], over 1000 nM.

Consider `CC(=O)Nc1cccc(C(=O)N2CCN(Cc3nc(-c4ccc(F)cc4)c(-c4nc(C(=O)NC(C)C)cs4)o3)CC2)c1` [Example 448], for which the 50% inhibitory concentration (IC50) is at most 1000 nM. `CC(C)NC(=O)c1csc(-c2oc(CNC(=O)c3ccc([N+](=O)[O-])cc3Cl)nc2-c2ccc(F)cc2)n1` [Example 272] had an IC50 of at most 1000 nM.

In turn, `COCc1onc(-c2ccc(Cl)cc2)c1-c1ccn(C(=O)NC(C)C)n1` [Example 22, 3-|3-(4-Chloro-phenyl)-5-methoxymethyl-isoxazol-4-yl|-pyrazole-1-carboxylic acid isopropylamide] had an IC50 of at most 1000 nM. `CC(C)NC(=O)c1csc(-c2c(-c3ccc(F)cc3)noc2CN(C)C)n1` [Example 29, 2-|5-Dimethylaminomethyl-3-(4-fluoro-phenyl)-isoxazol-4-yl|-thiazole-4-carboxylic acid isopropylamide] showed an IC50 of at most 1000 nM. `CC(C)NC(=O)c1csc(-c2oc(CNC(=O)c3ccccc3C(F)(F)F)nc2-c2ccc(F)cc2)n1` [Example 249] showed a half-inhibitory concentration (IC50) of at most 1000 nM. As for `CC(C)NC(=O)c1csc(-c2c(-c3ccc(F)cc3)noc2CNC(=O)c2cccc(Br)n2)n1` [Example 751], the IC50 is over 1000 nM. Same read-out and setting: as for `Cc1onc(-c2ccc(F)cc2Cl)c1-c1ccn(C(=O)NC(C)C)n1` [Example 21, 3-|3-(2-Chloro-4-fluoro-phenyl)-5-methyl-isoxazol-4-yl|-pyrazole-1-carboxylic acid isopropylamide], the figure is at most 1000 nM; as for `Cc1ccc(SCC(=O)N2CCN(Cc3nc(-c4ccc(F)cc4)c(-c4nc(C(=O)NC(C)C)cs4)o3)CC2)cc1` [Example 466], over 1000 nM; as for `COc1cc(OC)c(C(=O)NCc2onc(-c3ccc(F)cc3)c2-c2nc(C(=O)NC(C)C)cs2)cc1OC` [Example 759], over 1000 nM. `CC(=O)c1ccc(C(=O)NCc2onc(-c3ccc(F)cc3)c2-c2nc(C(=O)NC(C)C)cs2)cc1` [Example 642] had an IC50 of over 1000 nM. The same measure, in the same setting: next, `Cc1onc(-c2ccc(F)cc2)c1-c1csc(C(=O)NC(C)C)n1` [Example 34]: at most 1000 nM.

`COc1cc(C(=O)N2CCN(Cc3nc(-c4ccc(F)cc4)c(-c4nc(C(=O)NC(C)C)cs4)o3)CC2)cc(Cl)n1` [Example 478]: the IC50 was over 1000 nM.

For `CC(C)NC(=O)c1csc(-c2c(-c3ccc(F)cc3)noc2CNC(=O)c2ccc(C(C)C)cc2)n1` [Example 646], the IC50 is over 1000 nM. Still for that read-out and setting: next, `O=C(NCc1cccnc1)c1csc(-c2c(-c3ccc(F)cc3)n[nH]c2C2CCNCC2)n1` [Example 67, 2-|3-(4-Fluoro-phenyl)-5-piperidin-4-yl-1H-pyrazol-4-yl|-thiazole-4-carboxylic acid (pyridin-3-ylmethyl)-amide]: at most 1000 nM; `Cc1nc(-c2ccc(F)cc2)c(-c2nc(C(=O)NCc3ccccn3)cs2)s1` [Example 56, 4′-(4-Fluoro-phenyl)-2′-methyl-|2,5′|bithiazolyl-4-carboxylic acid (pyridin-2-ylmethyl)-amide]: at most 1000 nM; `CC(C)NC(=O)c1csc(-c2oc(CN3CCN(C(=O)c4ccc(O)cc4O)CC3)nc2-c2ccc(F)cc2)n1` [Example 385]: at most 1000 nM.

Staying with this assay, now noted: p38α kinase; Table 1 Biological Activity.
As for `Cc1nc(-c2ccc(F)cc2)c(-c2nc(C(=O)NCC(C)C)cs2)s1` [Example 1717], the IC50 is over 1000 nM. `Cc1ccc(CNC(=O)c2csc(-c3c(-c4ccc(F)cc4)n[nH]c3C3CCNCC3)n2)cc1C` [Example 2097] displayed a half-maximal inhibitory concentration (IC50) of over 1000 nM. `CC(C)NC(=O)c1csc(-c2c(-c3ccc(F)cc3)n[nH]c2C2CCN(C(=O)c3ccc(Cl)cc3O)CC2)n1` [Example 909] showed an IC50 of over 1000 nM. Molecule `O=C(NCc1ccc(Cl)cc1)c1csc(-c2c(-c3ccc(F)cc3)n[nH]c2C2CCNCC2)n1` [Example 2109] yielded an IC50 of over 1000 nM. On the same count and under the same terms, next, `CC(C)NC(=O)c1csc(-c2c(-c3ccc(F)cc3)n[nH]c2C2CCN(C(=O)c3ccc(C(F)(F)F)cc3[N+](=O)[O-])CC2)n1` [Example 1033]: over 1000 nM. Still for that read-out and setting: next, `CCN(Cc1onc(-c2ccc(F)cc2)c1-c1nc(C(=O)NC(C)C)cs1)C1CCCCC1` [Example 1543]: over 1000 nM. `COc1ccccc1N1CCN(Cc2onc(-c3ccc(F)cc3)c2-c2nc(C(=O)NC(C)C)cs2)CC1` [Example 1596] gave an IC50 of over 1000 nM. Molecule `CC(C)NC(=O)c1csc(-c2c(-c3ccc(F)cc3)noc2CN2Cc3ccccc3C2)n1` [Example 1541] registered an IC50 of over 1000 nM. `COc1ccc(NC(=O)c2csc(-c3c(-c4ccc(F)cc4)n[nH]c3C3CCNCC3)n2)cc1OC` [Example 2125] gave an IC50 of over 1000 nM. `Cc1nc(-c2ccc(F)cc2)c(-c2nc(C(=O)NC3CCCC3)cs2)s1` [Example 1721] came in with an IC50 of at most 1000 nM. `Cc1cccc(C(C)(C)C)c1NCc1onc(-c2ccc(F)cc2)c1-c1nc(C(=O)NC(C)C)cs1` [Example 1683]: the 50% inhibitory concentration (IC50) is over 1000 nM. The molecule `Cc1cc(C(=O)N2CCC(c3[nH]nc(-c4ccc(F)cc4)c3-c3nc(C(=O)NC(C)C)cs3)CC2)n[nH]1` [Example 830] had an IC50 of over 1000 nM.

Turning to `Cc1nc(-c2ccc(F)cc2)c(-c2nc(C(=O)N3CCN(c4ccc(F)cc4F)CC3)cs2)s1` [Example 1927], the concentration for half-maximal inhibition (IC50) is over 1000 nM.

Molecule `COc1cc(CNCc2nc(-c3ccc(F)cc3)c(-c3nc(C(=O)NC(C)C)cs3)o2)cc(OC)c1` [Example 1161] yielded an IC50 of over 1000 nM.

In the case of `COc1ccc(C(=O)CNCc2onc(-c3ccc(F)cc3)c2-c2nc(C(=O)NC(C)C)cs2)cc1` [Example 1504], the IC50 was over 1000 nM. On the same count and under the same terms, as for `CC(C)NC(=O)c1csc(-c2c(-c3ccc(F)cc3)n[nH]c2C2CCN(C(=O)c3ccc4cc(O)ccc4c3)CC2)n1` [Example 956], the figure is over 1000 nM. Still for that read-out and setting: next, `CCN(Cc1nc(-c2ccc(F)cc2)c(-c2nc(C(=O)NC(C)C)cs2)o1)C(Cc1ccccc1)c1ccco1` (centres unmarked) [Example 1291]: over 1000 nM; `CC(C)NC(=O)c1csc(-c2c(-c3ccc(F)cc3)noc2CNCc2ccc(C(F)(F)F)cc2)n1` [Example 1493]: over 1000 nM. For `Cc1nc(-c2ccc(F)cc2)c(-c2nc(C(=O)NC(C)C(C)C)cs2)s1` (centres unmarked) [Example 1724], the IC50 is over 1000 nM. As for `COc1ccccc1/C=C/C(=O)N1CCC(c2[nH]nc(-c3ccc(F)cc3)c2-c2nc(C(=O)NC(C)C)cs2)CC1` [Example 919], the IC50 was over 1000 nM. `CC(C)NC(=O)c1csc(-c2c(-c3ccc(F)cc3)noc2CN2CCCCC2CCO)n1` (centres unmarked) [Example 1548] had an IC50 of over 1000 nM.

`CC(=O)c1ccccc1C(=O)N1CCC(c2[nH]nc(-c3ccc(F)cc3)c2-c2nc(C(=O)NC(C)C)cs2)CC1` [Example 884] showed an IC50 of over 1000 nM. `CCOc1cccc(NCc2nc(-c3ccc(F)cc3)c(-c3nc(C(=O)NC(C)C)cs3)o2)c1` [Example 1341] returned an IC50 of over 1000 nM. On the same count and under the same terms, as for `CC(C)NC(=O)c1csc(-c2oc(CNc3ccccc3C(C)(C)C)nc2-c2ccc(F)cc2)n1` [Example 1348], the figure is over 1000 nM; as for `CC(C)NC(=O)c1csc(-c2oc(CNCCCNC(=O)OC(C)(C)C)nc2-c2ccc(F)cc2)n1` [Example 1165], over 1000 nM. Take `Cc1cccc(NCc2nc(-c3ccc(F)cc3)c(-c3nc(C(=O)NC(C)C)cs3)o2)c1` [Example 1308]: the concentration for half-maximal inhibition (IC50) is over 1000 nM. On the same count and under the same terms, next, `Cc1nc(-c2ccc(F)cc2)c(-c2nc(C(=O)N(Cc3ccccc3)C(C)C)cs2)s1` [Example 1883]: over 1000 nM. Still for that read-out and setting: as for `CC(C)NC(=O)c1csc(-c2c(-c3ccc(F)cc3)noc2CNCCCO)n1` [Example 1395], the figure is over 1000 nM. `CC(C)NC(=O)c1csc(-c2c(-c3ccc(F)cc3)noc2CNCCc2ccc(Cl)cc2)n1` [Example 1479] showed an IC50 of over 1000 nM. Still for that read-out and setting: as for `Cc1cccc(NCc2nc(-c3ccc(F)cc3)c(-c3nc(C(=O)NC(C)C)cs3)o2)c1C` [Example 1321], the figure is over 1000 nM; as for `Cc1ccc(C(=O)N2CCC(c3[nH]nc(-c4ccc(F)cc4)c3-c3nc(C(=O)NC(C)C)cs3)CC2)cc1F` [Example 863], over 1000 nM. In turn, `CC(C)NC(=O)c1csc(-c2c(-c3ccc(F)cc3)noc2CNc2ccc(C(F)(F)F)cc2)n1` [Example 1680] gave an IC50 of over 1000 nM. `CCN(CC)CCN(Cc1ccccc1)C(=O)c1csc(-c2sc(C)nc2-c2ccc(F)cc2)n1` [Example 1932] came in with a half-inhibitory concentration (IC50) of over 1000 nM.

(Values after US20060252807A1, “Novel ortho-terphenyl inhibitors of p38 kinase and methods of treating inflammatory disorders” (Kalypsys, Inc., priority 2005, published 2006).)
